Reference: patent US9606120B2, “Interfering peptides and method for detecting microorganisms” (BIOMÉRIEUX, priority 2012, dated 2017)

System: antibodies directed against the HCV Core, NS3 and NS4 proteins
Experiment: Vidas anti-HCV antibody immunoenzymatic test (Operating Mode 1) carried out with interfering peptide added
Parameters: species or system human; key to Index: signal / standard S1 value; index ≥1 positive, <1 negative
Settings: for Index: pos indices ≧1
Protocol: The disposable tip (SPR®) acts both as a solid phase and as a pipetting system. The surface of the tip is coated with antigens for the detection of antibodies directed against the HCV Core, NS3 and NS4 proteins. In a first step, the sample is diluted, and then suctioned up and down inside the tip. The anti-HCV antibodies present in the sample will bind to the antigens present inside the tip. Washing steps remove the unbound compounds. During the second step, (mouse) anti-human immunoglobulin (anti-IgG) monoclonal IgGs in Fab′ form, conjugated to recombinant alkaline phosphatase, are suctioned up and down inside the tip and will bind to the anti-HCV human Igs from the sample tested, bound to the antigens of the solid phase. Washing steps again remove the unbound compounds. […] The value of the fluorescence signal is proportional to the concentration of the antibody present in the sample. At the end of the test, the results are calculated automatically in the form of an index by the instrument, by dividing the value obtained by the value of the standard S1 brought back to 1 (value stored in the instrument). Thus, a sample of which the index is greater than or equal to 1 is considered to be positive by the immunoenzymatic test (presence of anti-HCV antibodies) and a sample of which the index is less than 1 is considered to be negative (absence of anti-HCV antibodies). In the paragraphs which follow, this HCV-antibody assay procedure will be referred to as “Operating Mode 1”, which corresponds to the assaying of anti-HCV antibodies without interfering peptide.
Several hundred serum samples, negative for HCV infection and originating from the Rhône-Alpes “Centres de Transfusion Sanguine” [Blood Banks], were screened in order to identify the samples which posed an interference problem. To do this, the samples were assayed according to Operating Mode 1 using the Vidas automated device. Only the sera that were positive according to Operating Mode 1 (index ≧1) were selected.
Such a difference between the result of Operating Mode 1 and that of the negative status established by the “Centres de Transfusion Sanguine” [Blood Banks] makes it possible to select the false-positive sera posing an interference problem.
Table 1 gives, for seven sera posing an interference problem and for the positive control C1, the results of assays carried out according to “Operating Mode 1” with or without the presence of the peptide V7E (SEQ ID No 2) or of the peptide Y7E (SEQ ID No 1). These peptides were added at a concentration of 5 μg/ml during the first step of the immunoenzymatic test protocol which corresponds to the dilution of the sample to be tested and the incubation thereof with the antigens present on the solid phase.
Likewise, table 2 gives, for two other sera posing an interference problem and for the positive control, the results of assays carried out according to Operating Mode 1 of the anti-HCV antibody detection protocol, with or without the presence of the peptide E8E (SEQ ID No 4), of the peptide A8E (SEQ ID No 3), or else of the peptide A6M (SEQ ID No 9). These peptides were added at a concentration of 1 μg/ml during the first step of the immunoenzymatic test protocol, which corresponds to the dilution of the sample to be tested, and the incubation thereof with the antigens present on the solid phase.

[1] = false-positive serum 175 1811 (sample with interference), peptide 5 μg/ml in first step
[2] = false-positive serum 284 2408 (sample with interference), peptide 5 μg/ml in first step
[3] = false-positive serum 498 (sample with interference), peptide 5 μg/ml in first step
[4] = false-positive serum 801 1409 (sample with interference), peptide 5 μg/ml in first step
[5] = false-positive serum F53 3009 (sample with interference), peptide 5 μg/ml in first step
[6] = false-positive serum H48 (sample with interference), peptide 5 μg/ml in first step
[7] = false-positive serum M43 (sample with interference), peptide 5 μg/ml in first step
[8] = positive control C1 (commercial serum pool), peptide 5 μg/ml in first step
[9] = seven sera posing an interference problem, peptide 5 μg/ml
[10] = false-positive serum 295 (sample with interference), peptide 1 μg/ml in first step
[11] = false-positive serum F25 (sample with interference), peptide 1 μg/ml in first step
[12] = positive control C1 (commercial serum pool), peptide 1 μg/ml in first step
[13] = two sera posing an interference problem, peptide 1 μg/ml

Row | Sequence | Index [1] | Index [2] | Index [3] | Index [4] | Index [5] | Index [6] | Index [7] | Index [8] | sera in which the interference is neutralized [9] | Index [10] | Index [11] | Index [12] | sera in which the interference is neutralized [13]
1 | VSPTHYVPE (HCV) [V7E, amino acids 218-226 of the NS4B protein of HCV] | 0.49 | 1.51 | 0.35 | 1.04 | 0.39 | 1.17 | 0.42 | 3.06 | 4/7 |  |  |  | 
2 | ECSQHLPYIE (HCV) [E8E, amino acids 53-54 of HCV NS4A fused to amino acids 1-8 of HCV NS4B] |  |  |  |  |  |  |  |  |  | 0.90 | 0.85 | 2.92 | 2/2
3 | AQKRLAPYIE (Streptoccus) [A8E, amino acids 64-73 of Streptococcus pneumoniae ribosomal small subunit methyltransferase H protein] |  |  |  |  |  |  |  |  |  | 0.95 | 0.41 | 3.02 | 2/2
4 | APYIEKGM (Streptococcus) [A6M, Streptococcus pneumoniae peptide, not according to the invention, used as a negative control, reference compound] |  |  |  |  |  |  |  |  |  | 1.04 | 2.90 | 3.05 | does not make it possible to neutralize the interference, in any of the sera
5 | YSPTHYVPE (staphylococcus) [Y7E] | 0.47 | 0.86 | 0.14 | 0.71 | 0.32 | 0.88 | 0.17 | 3.02 | totally neutralize the interference in all the sera |  |  |  | 
